Results: patent US11570987B2, “Pesticidal compounds and methods of use” (New York University, priority 2019, dated 2023)
Values belong to the compound of their own block, whether it stands above or below them.

Columns and labels:
Drosophila melanogaster [1] = assay: Residual exposure knockdown bioassay on female fruit flies; type: in vivo; conditions: for observed symptoms of exposed flies: fruit flies; for KT50 (median knockdown time): female Drosophila melanogaster, 2.0±0.1 mg, logistic regression of knockdown-time curves; for Drosophila knockdown times, comparison in words: Example 5, FIG. 5; for KT50 against female Drosophila, comparison in words: dosage 1.06*10^−1 g/m^2, FIG. 8
Description: Each symbol of FIGS. 2A-C corresponds to one female. Dashed lines indicate logistic regression of knockdown-time curves. The median knockdown time for each curve is denoted by its intersection with the horizontal KT50 marker. FIG. 2D illustrates comparison of the knockdown speeds (1/KT50) relative to DDT I. Error bars represent 95% confidence intervals (CI). Values with the same letter have overlapping 95% Cls and differences are considered insignificant. Inset: Photo of a typical female fly.
Female Drosophila melanogaster were exposed to 2.0±0.1 mg of DFDT, MFDT and DDT separately, in their crystalline and amorphous forms. The insects were monitored with a video camera until the entire population ceased to move. The videos then were analyzed to determine the knockdown times—a proxy for lethality—for each individual insect (Videos S1-S5). […] KT50 values, the times required for death of 50% of the insects, are the standard for assessing insecticide lethality (the lifetimes of individual insects differ because of the random nature of their contact with insecticide surfaces and varied susceptibility of a population). Here, the KT50 values were calculated by logistic regression of knockdown-time curves. […] Knockdown speeds, reciprocals of KT50 values, decreased in inverse order (FIG. 2d). The amorphous forms are always faster than their respective crystalline counterparts, with a-DFDT the fastest. […] Overall, the lethalities of the different solid forms of a given compound, as deduced from their knockdown speeds, were inversely correlated with their thermodynamic stability.
The relationships between functional groups that are directly attached to the central carbon atom and Drosophila knockdown times are shown in FIG. 6. […] Physical state of the compound at room temperature, and the median knockdown time (KT50) against female Drosophila are denoted below each compound. The dosage for the residual bioassay was 1.06*10^−1 g/m^2.
Residual action, which refers to the length of time a compound or composition may exist in a particular environment and remain effective, is a good proxy for the insecticidal activity of a compound. Each crystalline form was ground to a particle size similar to that of the liquid particles prepared by fine mist spraying. Lethality measurements were performed in duplicate for each solid-state form, each accompanied by two controls (no insecticide). Each microcrystalline form was added to a 10.0 cm diameter polystyrene petri dish (2.0 mg per dish), which was subsequently shaken to disperse the microcrystals throughout the petri dish. Amorphous forms were prepared by fine mist spraying a stock solution containing 70.0 mg of the respective insecticide in 10.0 mL hexane onto the top and bottom of 10.0 cm diameter polystyrene petri dishes (two sprays=0.280 mL) and allowing the hexane to evaporate at room temperature, resulting in 2.0 mg of liquid insecticide in each petri dish. 25 female adults Drosophila were sedated with carbon dioxide and flies were transferred to each petri dish. The top of the dish was then placed over the bottom and the motion of the mosquitos or fruit flies was recorded with a video camera (Sony HDR-CX455). The knockdown time was measured for each individual, with knockdown associated with an insect laying on the bottom surface of the petri dish in a supine position without moving from its original position after 10 seconds.

[2] = Stability of amorphous forms at room temperature; type: physicochemical
Description: DFDT and MFDT were synthesized from trichloroacetate and para-fluorobenzaldehyde to give 1-(4-fluorophenyl)-2,2,2-trichloroethanol. Subsequent reaction with fluorobenzene or chlorobenzene afforded DFDT and MFDT, respectively. Two polymorphic crystalline forms of DFDT (DFDT-I, -II) and three polymorphic forms of racemic MFDT ((RS)-MFDT-I, -II, -III) were discovered. DFDT-I single crystals could be obtained from a variety of solvents and DFDT-II single crystals from diethyl ether. (RS)-MFDT-I could be crystallized from a variety of solvents. The (R)- and (S)-MFDT enantiomers were resolved by chromatography on a chiral stationary phase, and single crystals were grown from a variety of solvents. Curiously, single crystals of (RS)-MFDT-II and -III were obtained by crystallization from the melt at >30° C. and 25° C., respectively, using seed crystals of either the R or S isomers. These crystalline forms, six total, were characterized by single crystal X-ray diffraction (FIG. 1). […] The Tm of the enantiomorphs was 47° C. Amorphous DFDT (a-DFDT), prepared by supercooling melts or fine mist spraying of solutions, afforded broad X-ray scattering halos (FIG. 1H) and was stable for 25 days at room temperature. Amorphous resolved and racemic MFDT (a-(R)- and a-(S)-MFDT, and a-(RS)-MFDT, respectively; FIG. 1H) were stable for 10 days at room temperature. These observations contrast with a-DDT, which transformed to crystalline DDT Form I within 5 hours at room temperature.

rats = assay: Acute oral toxicity, Fixed Dose Procedure (OECD Guideline 420); type: in vivo; conditions: for clinical symptoms: 5 animals; for clinical outcome of the animal in the pilot experiment: single animal
Description: (§1) Fixed Dose Procedure (OECD Guideline 420):
(§2) (RS)-MFTE and (RS)-PFTE were test under OECD, Test No. 420: Acute Oral Toxicity—Fixed Dose Procedure, OECD Guidelines for the Testing of Chemicals, Section 4, OECD Publishing, Paris (2002), which is hereby incorporated by reference in its entirety.
(§3) Groups of five young adult animals (rats) of one sex in a stepwise procedure using the fixed doses of 5, 50, 300 and 2000 mg/kg in the main study as shown in FIG. 12B. Most tests are likely to be completed with either one or two sighting study steps and one main study step, thus using between 5 and 7 animals. Up to 5 animals are used in a limit test.

[3] = as above; type: in vivo, rats; conditions: in vivo; rat, acute oral
Description: as §1, §2, §3

[4] = system: Anopheles quadrimaculatus; assay: Knockdown bioassay on female Anopheles mosquitoes in coated petri dishes; type: in vivo; conditions: for knockdown speed, times faster than a-DDT: Anopheles and Aedes mosquitoes (FIG. 3F); for KT50: female Anopheles, 1.0±0.1 mg amorphous form in petri dish
Description: (§4) Each symbol corresponds to one female. Dashed lines indicate logistic regression of knockdown-time curves. The median knockdown time for each curve is denoted by its intersection with the horizontal KT50 marker. FIG. 3F illustrates the relative knockdown speeds of amorphs. Error bars represent 95% confidence intervals (CI). Values with the same letter have overlapping 95% Cls and differences are considered insignificant. Insets: Photos of typical Anopheles and Aedes mosquito females.
(§5) Female Anopheles and Aedes mosquitoes exposed to 1.0±0.1 mg of various crystalline forms followed the same knockdown trend as Drosophila, see Example 2, with KT50 values decreasing in the order DDT-I>(RS)-MFDT-I>DFDT-I>DFDT-II (FIGS. 3A and 3B). […] Female mosquitoes were introduced into petri dishes coated with 1.0±0.1 mg of the amorphous forms, and their motions recorded (Videos S8-S10). KT50 values for a-DFDT and a-(RS)-MFDT against Anopheles were 29 and 39 minutes, and against Aedes were 30 and 40 minutes, respectively (FIGS. 3C and 3D). Corresponding KT50 values for a-DDT were much larger (120 and 112 minutes). Accordingly, the knockdown speeds for a-DFDT and a-(RS)-MFDT are 4 and 3 times faster than a-DDT, respectively (FIG. 3F).

Aedes aegypti = assay: Knockdown bioassay on female Aedes mosquitoes in coated petri dishes; type: in vivo; conditions: 1.0±0.1 mg amorphous form in petri dish
Description: as §4, §5

Drosophila melanogaster [5] = assay: Residual exposure knockdown bioassay on female fruit flies; type: in vivo; conditions: for speed of action (lethality) of enantiomers and racemate, in words: fruit flies, different dosages (FIG. 9, FIG. 10)

SMILES: Fc1ccc(C(c2ccc(Cl)cc2)C(Cl)(Cl)Cl)cc1 (stereo not drawn) [MFDT, 1,1,1-trichloro-2,2-(4-chlorophenyl)-(4-fluorophenyl)-ethane]
observed symptoms of exposed flies (Drosophila melanogaster [1]): induced hyperactivity followed by paralysis, and then death

SMILES: Clc1ccc(C(c2ccc(Cl)cc2)C(Cl)(Cl)Cl)cc1 [DDT-I, 1,1,1-trichloro-2,2-bis(4-chlorophenyl)ethane, reference compound]
KT50 (median knockdown time) (Drosophila melanogaster [1]): 261 min

time the amorphous form was stable ([2]; room temperature): 10 days
SMILES: Fc1ccc(C(c2ccc(Cl)cc2)C(Cl)(Cl)Cl)cc1 [a-(R)-MFDT, 1,1,1-trichloro-2,2-(4-chlorophenyl)-(4-fluorophenyl)-ethane]

SMILES: OC(c1c(F)c(F)c(F)c(F)c1F)C(Cl)(Cl)Cl (racemic) [(RS)-PFTE, 1-perfluorophenyl-2,2,2-trichloro-ethanol]
necropsy findings (rats; 300 mg/kg b.w.): no abnormal findings during necropsy
clinical symptoms (rats; 300 mg/kg b.w.): no clinical symptoms except for soft feces
necropsy findings (rats; 2000 mg/kg b.w.): changes were seen mainly in the gastrointestinal tract
clinical outcome of the animal in the pilot experiment (rats; 2000 mg/kg b.w.): had to be euthanized on day 1 approx. 3 h after application
LD50 [3]: 300 to 2000 mg/kg
Drosophila knockdown times, comparison in words (Drosophila melanogaster [1]): smaller than amorphous DFDT
KT50 against female Drosophila, comparison in words (Drosophila melanogaster [1]): comparable to that of crystalline deltamethrin Form I

SMILES: Clc1ccc(C(c2ccc(Cl)cc2)C(Cl)(Cl)Cl)cc1 [DDT, 1,1,1-trichloro-2,2-bis(4-chlorophenyl)ethane, reference compound]
KT50 against female Drosophila, comparison in words (Drosophila melanogaster [1]): much larger
observed symptoms of exposed flies (Drosophila melanogaster [1]): induced hyperactivity followed by paralysis, and then death

SMILES: CC(O)(c1c(F)c(F)c(F)c(F)c1F)C(Cl)(Cl)Cl (stereo not drawn) [PFTP, 2-(perfluorophenyl)-1,1,1-trichloro-propan-2-ol]
KT50 against female Drosophila, comparison in words (Drosophila melanogaster [1]): comparable to that of crystalline deltamethrin Form I

time the amorphous form was stable ([2]; room temperature): 10 days
SMILES: Fc1ccc(C(c2ccc(Cl)cc2)C(Cl)(Cl)Cl)cc1 (racemic) [a-(RS)-MFDT, 1,1,1-trichloro-2,2-(4-chlorophenyl)-(4-fluorophenyl)-ethane]
knockdown speed, times faster than a-DDT [4]: 3 times
KT50 [4]: 39 min
KT50 (Aedes aegypti): 40 min

SMILES: OC(c1ccc(C(F)(F)F)cc1)C(Cl)(Cl)Cl (stereo not drawn) [TFMTE, 1-(4-(trifluoromethyl)phenyl)-2,2,2-trichloro-ethanol]
Drosophila knockdown times, comparison in words (Drosophila melanogaster [1]): faster than DDT Form I, but not as fast as PFTE

SMILES: Fc1ccc(C(c2ccc(F)cc2)C(Cl)(Cl)Cl)cc1 [DFDT, reference compound]
KT50 against female Drosophila, comparison in words (Drosophila melanogaster [1]): much larger
observed symptoms of exposed flies (Drosophila melanogaster [1]): induced hyperactivity followed by paralysis, and then death

SMILES: OC(c1ccc(F)cc1)C(Cl)(Cl)Cl (racemic) [(RS)-MFTE, 1-(4-fluorophenyl)-2,2,2-trichloro-ethanol]
necropsy findings (rats; 300 mg/kg b.w.): no relevant changes were noted except for the spleen
clinical symptoms (rats; 300 mg/kg b.w.): only mild symptoms (underactivity)
necropsy findings (rats; 2000 mg/kg b.w.): changes were seen mainly in the gastrointestinal tract
clinical outcome of the animal in the pilot experiment (rats; 2000 mg/kg b.w.): had to be euthanized 1 day after application
LD50 [3]: 300 to 2000 mg/kg
KT50 against female Drosophila, comparison in words (Drosophila melanogaster [1]): comparable to that of crystalline deltamethrin Form I
speed of action (lethality) of enantiomers and racemate, in words (Drosophila melanogaster [5]): lies in between of (R) and (S)-MFTE

SMILES: Fc1ccc(C(c2ccc(F)cc2)C(Cl)(Cl)Cl)cc1 [a-DFDT]
knockdown speed, times faster than a-DDT [4]: 4 times
KT50 [4]: 29 min
time the amorphous form is stable ([2]; addition of 10 wt % PEG 100 emulsifier): at least 120 days
time the amorphous form was stable ([2]; room temperature): 25 days
KT50 (median knockdown time) (Drosophila melanogaster [1]): 54 min
KT50 (Aedes aegypti): 30 min

SMILES: Clc1ccc(C(c2ccc(Cl)cc2)C(Cl)(Cl)Cl)cc1 [a-DDT, 1,1,1-trichloro-2,2-bis(4-chlorophenyl)ethane]
KT50 [4]: 120 min
time to transformation to crystalline DDT Form I ([2]; room temperature): ≤ 5 h
KT50 (Aedes aegypti): 112 min

SMILES: O[C@H](c1ccc(F)cc1)C(Cl)(Cl)Cl [(R)-MFTE, (R)-1-(4-fluorophenyl)-2,2,2-trichloro-ethanol]
speed of action against deltamethrin Form I, in words (Drosophila melanogaster [5]; dosage above 5.30*10^−3/m^2): even faster in action than deltamethrin Form I
speed of action (lethality) of enantiomers and racemate, in words (Drosophila melanogaster [5]): always faster in action than (S)-MFTE

SMILES: O[C@H](c1c(F)c(F)c(F)c(F)c1F)C(Cl)(Cl)Cl [(R)-PFTE, (R)-1-perfluorophenyl-2,2,2-trichloro-ethanol]
speed of action against (RS)-PFTE, in words (Drosophila melanogaster [5]; dosage below 1.06*10^−1/m^2): faster in action than (RS)-PFTE
speed of action (lethality) of enantiomers and racemate, in words (Drosophila melanogaster [5]): always faster in action than (S)-PFTE
speed of action against deltamethrin Form I, in words (Drosophila melanogaster [5]; high dosage 1.06*10^−1/m^2 and above): slower in action than deltamethrin Form I
speed of action against deltamethrin, in words (Drosophila melanogaster [5]; low dosage 5.30*10^−3/m^2): faster in action than deltamethrin
